The target of this experiment is EBI2 (Homo sapiens, UniProt P32249). Briefly: Cell-based luminescent assay (EBI2 modulation). In outline: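 Cells plated overnight at 37° C, then exposed to compound at 4-5 uM final with 80 nM 7a,25-OHC agonist for 60 min at 37° C. Luminescence read after 60 min detection at 25° C in the dark; values normalized to neutral and stimulator controls and plate-pattern corrected.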

Where [1] appears, read: cell-based luminescence, 7a,25-OHC final assay concentration 80 nM, 60 minutes incubation, read-out: IC50.

Like-named read-outs stand apart in the source and are kept apart here.

EBI2, sequence (P32249 whole entry): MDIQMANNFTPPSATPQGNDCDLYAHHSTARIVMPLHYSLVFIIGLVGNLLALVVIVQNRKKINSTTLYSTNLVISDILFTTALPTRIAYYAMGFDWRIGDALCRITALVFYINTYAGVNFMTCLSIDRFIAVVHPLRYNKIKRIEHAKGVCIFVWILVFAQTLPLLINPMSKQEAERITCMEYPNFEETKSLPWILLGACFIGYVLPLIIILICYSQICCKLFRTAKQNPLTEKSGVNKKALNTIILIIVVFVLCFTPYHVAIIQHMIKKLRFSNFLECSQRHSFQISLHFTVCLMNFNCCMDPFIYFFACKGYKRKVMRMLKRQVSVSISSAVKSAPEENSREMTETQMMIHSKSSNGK

Usually IC50 stands for the concentration that inhibits the measured activity by half. Regarding `O=C(/C=C/c1ccc(F)cc1)N1CCCN(S(=O)(=O)/C=C/c2ccccc2)CC1` [Compound C198, (2E)-1-{4-[((1E)-2-phenylvinyl)sulfonyl](1,4-diazaperhydroepinyl)}-3-(4-fluorophenyl)prop-2-en-1-one], the IC50 under setting [1] lay within 500 to 5000 nM. With `O=C(c1cc2cc(Cl)ccc2[nH]1)N1CCC(N2CCOCC2)CC1` [Compound C199, 5-chloroindol-2-yl 4-morpholin-4-ylpiperidyl ketone], under setting [1], the IC50 was in the range of 500 to 5000 nM.

As to `O=C(c1ccc(C(F)(F)F)c(F)c1)N1CCN(C(=O)c2cc3cc(C(F)(F)F)ccc3[nH]2)CC1` [Compound C200, 4-{[3-fluoro-4-(trifluoromethyl)phenyl]carbonyl}piperazinyl 5-(trifluoromethyl)indol-2-yl ketone], under setting [1], the IC50 is less than 100 nM. Take `Cc1cccc(CN2CCN(C(=O)/C=C/c3ccccc3)CC2)c1` [Compound C201, (2E)-1-{4-[(3-methylphenyl)methyl]piperazinyl}-3-phenylprop-2-en-1-one]: the IC50 is less than 100 nM.

Take `CC(C)(C)c1ccc(S(=O)(=O)N2CCN(C(=O)/C=C/c3ccc(F)cc3)CC2)cc1` [Compound C202, (2E)-1-(4-{[4-(tert-butyl)phenyl]sulfonyl}piperazinyl)-3-(4-fluorophenyl)prop-2-en-1-one]: the IC50 under setting [1] was less than 100 nM. Consider `O=C(/C=C/c1ccccc1)N1CCN(Cc2ccc(Br)cc2)CC1` [Compound C203, (2E)-1-{4-[(4-bromophenyl)methyl]piperazinyl}-3-phenylprop-2-en-1-one], for which the IC50 under setting [1] is less than 100 nM. As to `O=C(c1ccc(-c2nnn[nH]2)cc1)N1CCN(C(=O)c2cc3cc(Cl)ccc3[nH]2)CC1` [Compound C204, 5-chloroindol-2-yl 4-[(4-(1H-1,2,3,4-tetraazol-5-yl)phenyl)carbonyl]piperazinyl ketone], the IC50 under setting [1] is less than 100 nM. Regarding `O=C(/C=C/c1ccc(F)cc1)N1CCN(S(=O)(=O)c2ccccc2)CC1` [Compound C205, (2E)-3-(4-fluorophenyl)-1-[4-(phenylsulfonyl)piperazinyl]prop-2-en-1-one], under setting [1], the IC50 was less than 100 nM. With `O=C(/C=C/c1ccc(F)cc1)N1CCN(S(=O)(=O)c2ccc([N+](=O)[O-])cc2)CC1` [Compound C206, (2E)-3-(4-fluorophenyl)-1-{4-[(4-nitrophenyl)sulfonyl]piperazinyl}prop-2-en-1-one], the half-inhibitory concentration (IC50) under setting [1] was less than 100 nM.

As to `O=C(c1cc2cc(Br)ccc2[nH]1)N1CCN(C(=O)c2ccc(F)cc2C(F)(F)F)CC1` [Compound C208, 5-bromoindol-2-yl 4-{[4-fluoro-2-(trifluoromethyl)phenyl]carbonyl}piperazinyl ketone], the IC50 under setting [1] was less than 100 nM. Turning to `O=C(/C=C/c1ccc(F)cc1)N1CCN(S(=O)(=O)c2cccc(Br)c2)CC1` [Compound C209, (2E)-1-{4-[(3-bromophenyl)sulfonyl]piperazinyl}-3-(4-fluorophenyl)prop-2-en-1-one], under setting [1], the IC50 was less than 100 nM. Consider `O=C(/C=C/c1ccc(Cl)c(Cl)c1)N1CCN(Cc2ccc(F)cc2)CC1` [Compound C210, (2E)-3-(3,4-dichlorophenyl)-1-{4-[(4-fluorophenyl)methyl]piperazinyl}prop-2-en-1-one], for which the IC50 under setting [1] is less than 100 nM.

Turning to `O=C(c1cc2cc(C(F)(F)F)ccc2[nH]1)N1CCN(Cc2ccc(F)cc2)CC1` [Compound C211, 4-[(4-fluorophenyl)methyl]piperazinyl 5-(trifluoromethyl)indol-2-yl ketone], under setting [1], the IC50 is less than 100 nM. On to `O=C(/C=C/c1ccc(F)cc1)N1CCN(S(=O)(=O)c2cccc(F)c2)CC1` [Compound C212, (2E)-3-(4-fluorophenyl)-1-{4-[(3-fluorophenyl)sulfonyl]piperazinyl}prop-2-en-1-one], for which, under setting [1], the IC50 is less than 100 nM. Turning to `CCOc1ccc(/C=C/C(=O)N2CCN(S(=O)(=O)c3ccc(Br)cc3)CC2)cc1` [Compound C213, (2E)-1-{4-[(4-bromophenyl)sulfonyl]piperazinyl}-3-(4-ethoxyphenyl)prop-2-en-1-one], under setting [1], the IC50 was less than 100 nM. On to `O=C(/C=C/c1ccc(Cl)c(Cl)c1)N1CCN(Cc2ccc(Cl)cc2)CC1` [Compound C214, (2E)-3-(3,4-dichlorophenyl)-1-{4-[(4-chlorophenyl)methyl]piperazinyl}prop-2-en-1-one], for which the IC50 under setting [1] is less than 100 nM. For `O=C(c1cc2ccc(F)cc2[nH]1)N1CCN(C(c2ccccc2)c2ccccc2)CC1` [Compound C215, 4-(diphenylmethyl)piperazinyl 6-fluoroindol-2-yl ketone], under setting [1], the concentration for half-maximal inhibition (IC50) is less than 100 nM.

With `O=C(C=Cc1ccc2c(c1)OCO2)N1CCN(C(=O)c2ccc(F)cc2)CC1` [Compound C216, 3-(2H-benzo[3,4-d]1,3-dioxolen-5-yl)-1-{4-[(4-fluorophenyl)carbonyl]piperazinyl}prop-2-en-1-one], the IC50 under setting [1] is less than 100 nM. On to `O=C(c1cc2cc(-c3ccccc3)ccc2[nH]1)N1CCN(C(c2ccccc2)c2ccccc2)CC1` [Compound C217, 4-(diphenylmethyl)piperazinyl 5-phenylindol-2-yl ketone], for which the IC50 under setting [1] was less than 100 nM.

Turning to `O=C(/C=C/c1ccc(C(F)(F)F)cc1)N1CCN(C(=O)c2cc3cc(Cl)ccc3[nH]2)CC1` [Compound C218, (2E)-1-{4-[(5-chloroindol-2-yl)carbonyl]piperazinyl}-3-[4-(trifluoromethyl)phenyl]prop-2-en-1-one], the half-maximal inhibitory concentration (IC50) under setting [1] is less than 100 nM. In the case of `Cc1ccc2[nH]c(C(=O)N3CCN(Cc4ccc(F)cc4)CC3)cc2c1` [Compound C219, 4-[(4-fluorophenyl)methyl]piperazinyl 5-methylindol-2-yl ketone], under setting [1], the IC50 was less than 100 nM. Regarding `COc1ccc(-c2ccc3[nH]c(C(=O)N4CCN(C(c5ccccc5)c5ccccc5)CC4)cc3c2)cc1` [Compound C220, 4-(diphenylmethyl)piperazinyl 5-(4-methoxyphenyl)indol-2-yl ketone], under setting [1], the IC50 was less than 100 nM. Turning to `O=C(/C=C/c1ccc(F)cc1)N1CCN(S(=O)(=O)c2ccc3ccccc3c2)CC1` [Compound C221, (2E)-3-(4-fluorophenyl)-1-[4-(2-naphthylsulfonyl)piperazinyl]prop-2-en-1-one], under setting [1], the IC50 was less than 100 nM.

With `CCN1CCN(C(=O)/C=C/c2ccc(Br)cc2)CC1` [Compound C222, (2E)-3-(4-bromophenyl)-1-(4-ethylpiperazinyl)prop-2-en-1-one], the IC50 under setting [1] is less than 100 nM. In the case of `Nc1ccc2cc(C(=O)N3CCN(C(c4ccccc4)c4ccccc4)CC3)ccc2c1` [Compound C223, 6-amino(2-naphthyl) 4-(diphenylmethyl)piperazinyl ketone], under setting [1], the IC50 is less than 100 nM. For the molecule `Cc1ccc(C#CC(=O)N2CCN(C(=O)c3ccc(F)cc3C(F)(F)F)CC2)cc1` [Compound C224, 1-(4-{[4-fluoro-2-(trifluoromethyl)phenyl]carbonyl}piperazinyl)-3-(4-methylphenyl)prop-2-yn-1-one], the IC50 under setting [1] is less than 100 nM. As to `O=C(/C=C/c1ccc(F)cc1)N1CCN(S(=O)(=O)c2cc(Cl)ccc2Cl)CC1` [Compound C225, (2E)-1-{4-[(2,5-dichlorophenyl)sulfonyl]piperazinyl}-3-(4-fluorophenyl)prop-2-en-1-one], under setting [1], the IC50 was less than 100 nM. Molecule `O=C(c1cc2cc(Cl)ccc2[nH]1)N1CCC(Nc2ccc(F)cc2)CC1` [Compound C226, 5-chloroindol-2-yl 4-[(4-fluorophenyl)amino]piperidyl ketone] had an IC50 of less than 100 nM.
